Test results published in US20100249083A1, “16,17-CARBOCYCLIC CONDENSED STEROID COMPOUNDS HAVING SELECTIVE ESTROGENIC ACTIVITY” (N.V. Organon, priority 2000, published 2010).

Experiments:
[1] = Allen Doisy test for estrogenic activity in vivo
Protocol: In vivo estrogenic activity was determined by means of the Allen Doisy test, described in F. Allen, L. A. Doisy, J. Amer. Med. Assoc., 81, 819-821 (1923)

[2] = biological target: T1, human estrogen receptor α (hERα) (Homo sapiens, UniProt P03372); experiment: Estrogenic agonistic transactivation assay, CHO cells with rat oxytocin promoter and luciferase reporter; assay type: cell-based; parameters: expressed in transfected cells; host or cells: CHO cells with rat oxytocin promoter and luciferase reporter; conditions: compared with estradiol; first value of Erα/Erβ pair
T1 sequence (P03372 1-595): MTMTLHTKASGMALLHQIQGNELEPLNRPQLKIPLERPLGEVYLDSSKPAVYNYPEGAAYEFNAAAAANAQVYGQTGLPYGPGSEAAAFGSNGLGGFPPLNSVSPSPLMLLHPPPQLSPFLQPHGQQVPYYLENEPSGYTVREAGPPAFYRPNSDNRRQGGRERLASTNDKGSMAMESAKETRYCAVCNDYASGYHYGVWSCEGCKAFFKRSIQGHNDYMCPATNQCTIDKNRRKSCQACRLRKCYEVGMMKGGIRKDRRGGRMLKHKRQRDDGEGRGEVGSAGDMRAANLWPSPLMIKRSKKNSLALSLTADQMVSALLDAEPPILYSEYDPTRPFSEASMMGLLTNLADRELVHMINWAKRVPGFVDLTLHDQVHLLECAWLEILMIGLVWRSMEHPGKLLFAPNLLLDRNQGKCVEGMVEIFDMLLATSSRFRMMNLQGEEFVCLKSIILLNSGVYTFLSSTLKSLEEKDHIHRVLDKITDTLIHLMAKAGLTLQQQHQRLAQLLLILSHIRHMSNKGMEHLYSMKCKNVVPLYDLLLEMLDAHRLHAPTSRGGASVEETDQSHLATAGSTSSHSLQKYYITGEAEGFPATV
Description: (§1) The estrogenic agonistic transactivation (potency ratio) of a test compound to stimulate the transactivation of the enzyme luciferase mediated via the estrogen receptors hERα or hERβ is compared with the standard estrogen estradiol. The antiestrogenic activity (potency ratio) of a test compound to inhibit the transactivation of the enzyme luciferase mediated via the estrogen receptors hERα or hERβ by the (17β)-estradiol is compared with the standard ICI 164.384 (=(7α,17β)-N-butyl-3,17-dihydroxy-N-methylestra-1,3,5(10)-triene-7-undecanamide).

[3] = biological target: T2, human estrogen receptor β (hERβ) (Homo sapiens, UniProt Q92731); experiment: as above; assay type: cell-based; parameters: expressed in transfected cells; host or cells: CHO cells with rat oxytocin promoter and luciferase reporter; conditions: compared with estradiol; second value of Erα/Erβ pair
Description: as §1

[4] = tested on: ovariectomised (OVX) rats; experiment: Test for prevention of ovariectomy-induced bone loss in rats (anti-osteoporosis test); assay type: in vivo, rat; conditions: oral, 4 weeks, trabecular bone mineral density difference 40-60%
Description: Ovariectomy of rats induces bone loss, which is due to estrogen deficiency. Administration of estrogenic compounds prevents this effect. The test is used to evaluate a compound for anti-osteoporotic activity in ovariectomised (OVX) rats. The effect on bone mass can be evaluated by peripheral Quantitative Computed Tomography (pQCT), or by quantitative analysis of X-ray pictures. Plasma osteocalcin and urinary deoxypyridinoline, calcium and phosphate gives information on bone metabolism. Increase of uterine weight and decrease of body and thymus weight reflect estrogenic effect.
Mature virgin 225-250 g female Wistar rats. Strain: Hsd/Cpd:Wu, SPF-bred by Harlan, CPB, Zeist, The Netherlands.
On day 1 of the experiment the rats are weighed and distributed over the cages in order of bodyweight, whereby the rat with the smallest bodyweight is placed in the first cage and the heaviest rat in the final cage. Treatments are randomised over the rats.
Sham-operation and ovariectomy are performed under ether anaesthesia. After recovery from the anaesthesia, within 24 h, vehicle, reference compound or test compound is administered once or twice daily for 4 weeks. […] Trabecular bone mineral density of the metaphyseal part of the femur (FBMDDIS mg/cm^3) is measured with a pQCT (peripheral Quantitative Computed Tomography machine; XCT 960A, Stratec, Birkenfeld, Germany). […]

[5] = biological target: T2, human estrogen receptor β (hERβ); conditions: compared with (17β)-estradiol; second value of Erα/Erβ pair
Protocol: (§2) Compounds are tested for their estrogen receptor activity in a binding assay and in a transactivation assay using the human estrogen receptor α or β.
(§3) Competitive binding to cytoplasmic human estrogen receptor α or β from recombinant Chinese hamster ovary (CHO) cells is used to estimate the relative binding affinity (═RBA) potency ratio) of a test compound as compared with (17β)-estradiol (E2) for estrogen receptors α or β present in the cytosol of recombinant CHO cells, stably transfected with the human estrogen receptor α (hERα) or β receptor (hERβ).

[6] = biological target: T1, human estrogen receptor α (hERα); conditions: compared with (17β)-estradiol; first value of Erα/Erβ pair
Protocol: as §2, §3

T2 sequence (Q92731 whole entry): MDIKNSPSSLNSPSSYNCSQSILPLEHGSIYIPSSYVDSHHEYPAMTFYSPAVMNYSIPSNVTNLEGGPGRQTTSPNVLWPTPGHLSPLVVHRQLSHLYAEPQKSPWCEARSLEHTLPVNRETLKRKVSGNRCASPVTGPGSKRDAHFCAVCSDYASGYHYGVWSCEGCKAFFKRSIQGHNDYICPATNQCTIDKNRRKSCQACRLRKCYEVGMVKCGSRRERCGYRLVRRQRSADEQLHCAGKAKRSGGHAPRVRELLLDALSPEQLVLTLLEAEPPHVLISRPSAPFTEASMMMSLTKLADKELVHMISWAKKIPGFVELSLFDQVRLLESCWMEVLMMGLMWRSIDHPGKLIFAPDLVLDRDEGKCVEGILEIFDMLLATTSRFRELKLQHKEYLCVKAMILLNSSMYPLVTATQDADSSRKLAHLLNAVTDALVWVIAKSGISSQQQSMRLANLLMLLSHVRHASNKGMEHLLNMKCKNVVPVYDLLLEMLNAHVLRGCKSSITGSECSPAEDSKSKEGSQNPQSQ

Transactivation Erα (agonist potency ratio) [2] | Transactivation Erβ (agonist potency ratio) [3] | Binding-assay Erβ (relative binding affinity, potency ratio) [5] | Binding-assay Erα (relative binding affinity, potency ratio) [6] | Structure (SMILES) | Allen Doisy test, active dose ([1]; oral) [mg/kg] | Allen Doisy test, active dose ([1]; sc) [mg/kg] | Osteoporosis test, minimal active dose (MAD) [4] [mg/kg]
0.3 | < 0.1 | 7 | 15 | CCCC1Cc2cc(O)ccc2C2CCC3(C)C(CC4CCCCC43O)C12 (stereo not drawn) [(7α,16β,17α)-7-propyl-16,24-cyclo-19,21-dinorchola-1,3,5(10)-triene-3,17-diol] | 0.125 | 0.024 | 0.19
 |  |  |  | CCC[C@@H]1Cc2cc(O)ccc2C2CC[C@@]3(C)C(C[C@H]4CC[C@H](O)C[C@]43O)C21 (stereo partly drawn) [E, (7α,16β,17 α,22S)-7-propyl-16,24-cyclo-19,21-dinorchola-1,3,5(10)-triene-3,17,22-triol] | 0.03 | 0.005 | 0.03
